Here are results for 20 molecules from US10173991B2, “Sulfone amide linked benzothiazole inhibitors of endothelial lipase” (BRISTOL-MYERS SQUIBB COMPANY, priority 2014, dated 2019).

For the first test, the target named is Endothelial lipase (EL) (Homo sapiens (Human), UniProt Q9Y5X9). The test can be described thus: Endothelial lipase (EL) enzymatic assay with fluorescent substrate A10070 in DMPG vesicles. The test is classed as biochemical.
Chain of Endothelial lipase (EL) (Q9Y5X9 21-500): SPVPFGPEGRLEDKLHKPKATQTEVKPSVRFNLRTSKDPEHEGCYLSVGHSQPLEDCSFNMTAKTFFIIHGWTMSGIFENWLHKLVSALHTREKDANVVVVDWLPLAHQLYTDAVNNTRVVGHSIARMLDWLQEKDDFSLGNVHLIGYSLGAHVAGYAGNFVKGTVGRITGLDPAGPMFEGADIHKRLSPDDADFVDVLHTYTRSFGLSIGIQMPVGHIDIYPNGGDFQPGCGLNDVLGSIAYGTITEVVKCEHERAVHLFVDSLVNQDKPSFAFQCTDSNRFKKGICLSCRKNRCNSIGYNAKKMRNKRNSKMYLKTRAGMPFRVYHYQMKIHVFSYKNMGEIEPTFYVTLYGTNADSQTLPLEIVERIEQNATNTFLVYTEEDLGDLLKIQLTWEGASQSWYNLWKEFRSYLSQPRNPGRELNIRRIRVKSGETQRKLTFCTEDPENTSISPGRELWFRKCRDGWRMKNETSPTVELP
Details: not given
On the procedure: Endothelial lipase (EL) and hepatic lipase (HL) activities were measured using a fluorescent substrate, A10070, (Invitrogen, CA) doped into an artificial vesicle containing DMPG (Avanti Polar Lipids) as the excipient. Vesicles were prepared by combining 571 μL of 29 mM DMPG in a 1:1 mixture of MeOH and CHCl3 with 2000 μL of 1 mM A10070 in a 1:1 mixture of MeOH and CHCl3. The mixture was dried under nitrogen in multiple vials then resuspended in 20 mL total volume of 50 mM HEPES pH 8.0 buffer containing 50 mM NaCl and 0.2 mM EDTA. The sample was allowed to sit at room temperature for 15 min and then was sonicated 3×4 mins on ice with a Branson Sonicator using duty cycle 1. This preparation provides vesicles with a mole fraction of 0.11 for the FRET substrate.
The enzymatic assay was measured using 384-well white Optiplates. Each well contained 20 μL of assay buffer (50 mM HEPES pH 8.0, 50 mM NaCl and 1 mM CaCl2) and 0.25 μL of a DMSO solution containing a compound of interest. EL or HL (10 μL) was added and allowed to incubate with the compound for 30 min at 37° C. The source of EL was conditioned media obtained from HT-1080 cells that were transformed using RAGE technology (Athersys) to overexpress endogenous EL, and HL was partially purified from conditioned media obtained from COS cells overexpressing HL. The reaction was started by the addition of 10 μL of a 1:10 dilution of vesicles. The final total reaction volume was […]. The reaction rates were measured on a Gemini plate reader with an excitation wavelength of 490 nm and an emission wavelength of 530 nm. Readings were taken over a period of 60 minutes, and the slope between 300 and 900 secs of the readout was used to calculate the rate of the reaction.
For orientation: IC50 means the concentration at which inhibition is half-maximal. Read a high IC50 as lower potency. In the case of `COC(=O)N(C)c1ccc(-c2cc3sc(C(C(=O)NCC(=O)NC4CC4)S(=O)(=O)CCC(F)(F)F)nc3cc2F)cc1` (centres unmarked) [Example 33, methyl N-{4-[2-({[(cyclopropyl-carbamoyl)methyl]carbamoyl}(3,3,3-trifluoropropane-sulfonyl)methyl)-5-fluoro-1,3-benzothiazol-6-yl]phenyl}-N-methylcarbamate], the IC50 stood at 4 nM.

`O=C(CNC(=O)C(c1nc2cc(F)c(-c3cccc(NC(=O)OCc4ccccc4)c3)cc2s1)S(=O)(=O)C1CC1)NC1CC1` (centres unmarked) [Example 555, benzyl N-(3-{2-[(cyclopropane-sulfonyl) ({[(cyclopropyl-carbamoyl)methyl]carbamoyl})methyl]-5-fluoro-1,3-benzothiazol-6-yl}phenyl) carbamate]: the midpoint of inhibition, the IC50, lay at 1 nM. In turn, `CN(C)S(=O)(=O)C(C(=O)NCC(=O)NC1CC1)c1nc2c(F)cc(-c3ccc(F)nc3)cc2s1` (centres unmarked) [Example 489, N-[(cyclopropyl-carbamoyl)methyl]-2-(dimethyl-sulfamoyl)-2-[4-fluoro-6-(6-fluoropyridin-3-yl)-1,3-benzothiazol-2-yl]acetamide] displayed an IC50 of 165 nM. For the molecule `CS(=O)(=O)C(C(=O)NCC(=O)NC1CC1)c1nc2cc(F)c(-c3cccc(Cl)c3)cc2s1` (centres unmarked) [Example 39, 2-[6-(3-chlorophenyl)-5-fluoro-1,3-benzothiazol-2-yl]-N-[(cyclopropyl-carbamoyl)methyl]-2-methanesulfonyl-acetamide], the IC50 turned out to be 3 nM. As to `COC(=O)Nc1ccc(-c2cc3sc(C(C(=O)NCC(=O)NC4CC4)S(C)(=O)=O)nc3cc2F)cc1F` (centres unmarked) [Example 118, methyl N-{4-[2-({[(cyclopropyl-carbamoyl)methyl]carbamoyl} (methanesulfonyl)methyl)-5-fluoro-1,3-benzothiazol-6-yl]-2-fluorophenyl} carbamate], half-maximal inhibition (IC50) was put at 11 nM. Take `COc1ncccc1-c1cc2sc(C(C(=O)NCC(=O)NC3CC3)S(C)(=O)=O)nc2cc1F` (centres unmarked) [Example 322, N-[(cyclopropyl-carbamoyl)methyl]-2-[5-fluoro-6-(2-methoxypyridin-3-yl)-1,3-benzothiazol-2-yl]-2-methanesulfonyl-acetamide]: the midpoint of inhibition, the IC50, lay at 5 nM.

In the case of `COCCS(=O)(=O)C(C(=O)NCC(=O)NC1CC1)c1nc2cc(F)c(-c3ccc4c(c3)CCN4C(C)=O)cc2s1` (centres unmarked) [Example 416, 2-[6-(1-acetyl-2,3-dihydro-1H-indol-5-yl)-5-fluoro-1,3-benzothiazol-2-yl]-N-[(cyclopropyl-carbamoyl)methyl]-2-(2-methoxyethane-sulfonyl)acetamide], the IC50 stood at 11 nM. In the case of `COCCS(=O)(=O)C(C(=O)NCC(=O)NC1CC1)c1nc2cc(-c3cccc(OC)c3)ccc2s1` (centres unmarked) [Example 84, N-[(cyclopropyl-carbamoyl)methyl]-2-(2-methoxyethane-sulfonyl)-2-[5-(3-methoxyphenyl)-1,3-benzothiazol-2-yl]acetamide], the midpoint of inhibition, the IC50, lay at 82 nM. In turn, `Cc1ncc(-c2cc(F)c3nc(C(C(=O)NCC(=O)NC4CC4)S(=O)(=O)N(C)C)sc3c2)cn1` (centres unmarked) [Example 491, N-[(cyclopropyl-carbamoyl)methyl]-2-(dimethyl-sulfamoyl)-2-[4-fluoro-6-(2-methylpyrimidin-5-yl)-1,3-benzothiazol-2-yl]acetamide] returned an IC50 of 82 nM.

Molecule `COCCS(=O)(=O)C(C(=O)NCC(=O)NC1CC1)c1nc2cc(-c3ccc(-c4nnn[nH]4)cc3)c(F)cc2s1` (centres unmarked) [Example 128, N-[(cyclopropyl-carbamoyl)methyl]-2-{6-fluoro-5-[4-(1H-1,2,3,4-tetrazol-5-yl)phenyl]-1,3-benzothiazol-2-yl}-2-(2-methoxyethane-sulfonyl) acetamide] gave an IC50 of 97 nM. In turn, `O=C(CNC(=O)C(c1nc2cc(F)c(-c3ccc(=O)n(Cc4ccccc4)c3)cc2s1)S(=O)(=O)CCC(F)(F)F)NC1CC1` (centres unmarked) [Example 592, 2-[6-(1-benzyl-6-oxo-1,6-dihydropyridin-3-yl)-5-fluoro-1,3-benzothiazol-2-yl]-N-[(cyclopropyl-carbamoyl)methyl]-2-(3,3,3-trifluoropropane-sulfonyl)acetamide] displayed an IC50 of 5 nM. `COCCS(=O)(=O)C(C(=O)NCC(=O)NC1CC1)c1nc2ccc(-c3cncnc3)cc2s1` (centres unmarked) [Example 310, N-[(cyclopropyl-carbamoyl)methyl]-2-(2-methoxyethane-sulfonyl)-2-[6-(pyrimidin-5-yl)-1,3-benzothiazol-2-yl]acetamide] returned an IC50 of 93 nM. Molecule `COCCS(=O)(=O)C(C(=O)NCC(=O)NCC1CC1)c1nc2ccc(-c3ccc(F)nc3)cc2s1` (centres unmarked) [Example 382, N-{[(cyclopropyl-methyl)carbamoyl]methyl}-2-[6-(6-fluoropyridin-3-yl)-1,3-benzothiazol-2-yl]-2-(2-methoxyethane-sulfonyl)acetamide] registered an IC50 of 22 nM. `CC(C)OC(=O)Nc1ccc(-c2cc3sc(C(C(=O)NCC(=O)NC4CC4)S(C)(=O)=O)nc3cc2F)cc1` (centres unmarked) [Example 539, propan-2-yl N-{4-[2-({[(cyclopropyl-carbamoyl)methyl]carbamoyl} (methanesulfonyl)methyl)-5-fluoro-1,3-benzothiazol-6-yl]phenyl} carbamate]: 1 nM corresponded to half-maximal inhibition (IC50). In turn, `CC(C)Oc1ccc(-c2cc3sc(C(C(=O)NCC(=O)NC4CC4)S(=O)(=O)C(C)C)nc3cc2F)cn1` (centres unmarked) [Example 235, N-[(cyclopropyl-carbamoyl)methyl]-2-{5-fluoro-6-[6-(propan-2-yloxy)pyridin-3-yl]-1,3-benzothiazol-2-yl}-2-(propane-2-sulfonyl) acetamide] gave an IC50 of 6 nM. As for `CS(=O)(=O)C(C(=O)NCC(=O)NC1CC1)c1nc2cc(F)c(-c3ccc(C(N)=O)cc3)cc2s1` (centres unmarked) [Example 331, 4-[2-({[(cyclopropyl-carbamoyl)methyl]carbamoyl} (methanesulfonyl)methyl)-5-fluoro-1,3-benzothiazol-6-yl]benzamide], the IC50 is 4 nM. Regarding `COCCS(=O)(=O)C(C(=O)NCC(=O)NC1CC1)c1nc2ccc(-c3ccc(C(=O)N4CC(C)(O)C4)cc3)cc2s1` (centres unmarked) [Example 405, N-[(cyclopropyl-carbamoyl)methyl]-2-{6-[4-(3-hydroxy-3-methylazetidine-1-carbonyl)phenyl]-1,3-benzothiazol-2-yl}-2-(2-methoxyethane-sulfonyl)acetamide], the IC50 came out at 12 nM. Same read-out and setting: the result for `COCCS(=O)(=O)C(C(=O)NCC(=O)NC1CC1)c1nc2cc(-c3cccnc3F)ccc2s1` (centres unmarked) [Example 82, N-[(cyclopropyl-carbamoyl)methyl]-2-[5-(2-fluoropyridin-3-yl)-1,3-benzothiazol-2-yl]-2-(2-methoxyethane-sulfonyl) acetamide] reads 61 nM; that for `NC(=O)Nc1ccc(-c2cc3sc(C(C(=O)NCC(=O)NC4CC4)S(=O)(=O)CCC(F)(F)F)nc3cc2F)cc1` (centres unmarked) [Example 7, 2-{6-[4-(carbamoyl-amino)phenyl]-5-fluoro-1,3-benzothiazol-2-yl}-N-[(cyclopropyl-carbamoyl)methyl]-2-(3,3,3-trifluoropropane-sulfonyl) acetamide], 5 nM.

The test is the same for the next values; noted with them: EL from conditioned media of HT-1080 cells; 30 min preincubation at 37° C.
The molecule `COCCS(=O)(=O)C(C(=O)NCC(=O)NC1CC1)c1nc2ccc(-c3ccc(F)nc3)cc2s1` (centres unmarked) [Example 376, N-[(Cyclopropylcarbamoyl)methyl]-2-[6-(6-fluoropyridin-3-yl)-1,3-benzothiazol-2-yl]-2-(2-methoxyethanesulfonyl)acetamide] displayed an IC50 of 4 nM.
